Measured values reported in patent US11491155B2, “Salt of a pyrimido[6,1-A]isoquinolin-4-one compound” (VERONA PHARMA PLC, priority 2015, dated 2022).
Counter-ions that a name gives are not always drawn.

How the values were obtained:
[1] = Solubility of RPL554 and salts in pMDI propellant systems; type: physicochemical
Summary of the method: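 Ten actuations from each pMDI, three replicates per formulation, were filtered through a 0.20 μm filter into a vial cooled in dry ice/acetone, with about 10 s shaking between shots. The filtrate was evaporated to dryness, the residue recovered in 1 mL recovery solution and quantified by HPLC. The percent solubilised was taken against the starting RPL554 mass in the canister, computed from theoretical molecular weights of free base and salts.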

[2] = Primary particle size analysis by laser light diffraction (Mastersizer 2000); type: physicochemical; conditions: micronised, mean n=3
Protocol: A Mastersizer 2000 fitted with a Scirocco 2000 dry powder dispersion unit (Malvern Instruments Ltd, UK) was used to analyse the primary particle size of the micronised RPL554 and salt variants. The salts (50 mg) were automatically sampled via a vibrating feed control at a feeder rate of 60% and dispersed in compressed air at a pressure of 3 bar.

[3] = Physico-chemical characteristics of salt candidates: solubility in water, pH of aqueous suspension/solution, form post water maturation
Protocol: The physico-chemical characteristics of the salt candidates were determined.

[4] = Aerosol performance of DPI formulations (Cyclohaler, NGI); type: physicochemical; conditions: for †Measured Mass of 1% w/w Blend Delivered per capsule / ††RPL554 Emitted (μg) per capsule (B): Cyclohaler; for †Measured Mass of 1% w/w Blend Delivered per capsule: 5 capsules containing 20 mg powder blend, mass from weight change of capsule-loaded device; for ††RPL554 Emitted (μg) per capsule (B): NGI, mass determined from HPLC analysis of recovered samples; for ††RPL554 Emitted (μg) per capsule (B) / Calculated RPL554 Content (μg) per capsule (A): as RPL554 base; for Calculated RPL554 Content (μg) per capsule (A): calculated from delivered blend mass and measured blend content
Summary of the method: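 Capsules held 20 mg of 1% w/w RPL554 free base or salt:lactose blend (200 μg salt, not adjusted for molecular weight). Fired from Cyclohaler at 90 L/min for 2.7 s into NGI with pre-separator, 5 capsules per formulation; drug recovered from device, induction port and stages to derive ED, FPD, FPF.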

[5] = Solubility of RPL554 salts in saline solutions, water and aqueous buffer solutions at 25° C. (HPLC); type: physicochemical; conditions: for Solubility as RPL554 (mg/ml) in 0.7 w/w % Saline / Solubility as RPL554 (mg/ml) in 0.9 w/w % Saline / Solubility as RPL554 (mg/ml) in 1.1 w/w % Saline / Solubility as RPL554 (mg/ml) in Water: 24 hours; for Solubility as RPL554 (mg/ml) in Water: deionised water
Summary of the method: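 Salts or free base (ca 50 mg) suspended in 1 ml of buffered 0.9% saline (pH 3.5–6.5), 0.7–1.1% saline or deionised water, agitated 24 h at 25° C. Filtrates analysed by HPLC with single-point calibration; solubility expressed as RPL554 free base, not salt.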

[6] = RPL554 content and content uniformity of 1% w/w lactose powder blends; type: physicochemical; conditions: for Measured Blend Content (% Theoretical): 1% w/w RPL554 variant: lactose powder blend, expressed as RPL554 base; for **Adjusted RPL554 Content per capsule: per 20 mg capsule of 1% w/w lactose blend, adjusted for measured blend content (% theoretical), as RPL554 base
Summary of the method: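 RPL554 free base or salt was sieved (38 μm) with some lactose, mortar-mixed with the rest, and Turbula-blended for 10 min at 46 rpm to give 1% w/w blends. For uniformity, ~20 mg samples from each blend were diluted to 10 mL, sonicated for 3 min and assayed by HPLC.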

[7] = in HFA 134 with Ethanol/Tween, hydrochloride
[8] = HFA 227: 10% Ethanol: 0.1% Tween
[9] = in HFA 134, listed as Ethane-1,2-disulfonate hemi-salt
[10] = in HFA 134 with Ethanol/Tween, listed as Ethane-1,2-disulfonate hemi-salt

COc1cc2c(cc1OC)-c1c/c(=N\c3c(C)cc(C)cc3C)n(CCNC(N)=O)c(=O)n1CC2 [Hydrochloride, RPL554 hydrochloride]
Solubility RPL554 (μg/g) ([1]; in HFA 134, BLQ = below limit of quantitation (0.06 μg/mL), hydrochloride): BLQ
Calculated RPL554 solubilised (%) ([1]; in HFA 134, hydrochloride): BLQ
Calculated Solubilised RPL554 μg per 50 μL actuation ([1]; in HFA 134, hydrochloride): BLQ
Estimated RPL554 solubilised (%) [1, 7]: 5.27%
Estimated Solubilised RPL554 μg per 50 μL actuation [1, 7]: 9.79 µg
Solubility RPL554 [1, 7]: 149.17 µg/g
Calculated RPL554 solubilised (%) ([1]; in HFA 227): BLQ
Calculated Solubilised RPL554 μg per 50 μL actuation ([1]; in HFA 227): BLQ
Solubility RPL554 (μg/g) ([1]; in HFA 227): BLQ
D (0.1) (μm) ([2]; hydrochloride): 0.53 μm
D (0.5) (μm) ([2]; hydrochloride): 1.37 μm
D (0.9) (μm) ([2]; hydrochloride): 3.47 μm
pH of aqueous suspension/solution ([3]; listed as Hydrochloric anhydrous source, hydrochloride): 3.68
pH of aqueous suspension/solution ([3]; listed as Hydrochloric aqueous source, hydrochloride): 3.84
†Measured Mass of 1% w/w Blend Delivered per capsule ([4]; hydrochloride): 20.14 mg
††RPL554 Emitted (μg) per capsule (B) ([4]; hydrochloride): 102.27 µg
Calculated RPL554 Content (μg) per capsule (A) ([4]; hydrochloride): 157.96 µg
Solubility as RPL554 (mg/ml) in 0.7 w/w % Saline ([5]; hydrochloride): 2.85 mg/mL
Solubility as RPL554 (mg/ml) in 0.9 w/w % Saline ([5]; hydrochloride): 1.93 mg/mL
Solubility as RPL554 (mg/ml) in 1.1 w/w % Saline ([5]; hydrochloride): 2.48 mg/mL
Solubility as RPL554 (mg/ml) in Water ([5]; hydrochloride): 12.66 mg/mL
solubility at 24 h ([5]; phosphate buffer in 0.9% w/w saline, 25 °C, pH 6.5, aqueous buffer, thermodynamic from solid, in saline 0.9% w/w, read-out: Solubility as RPL554 (mg/ml) in buffer solution pH 6.5, Phosphate): 0.02 mg/mL
Measured Blend Content (% Theoretical) ([6]; hydrochloride): 84.42 % Theoretical
**Adjusted RPL554 Content per capsule ([6]; hydrochloride): 156.86 µg

COc1cc2c(cc1OC)-c1c/c(=N\c3c(C)cc(C)cc3C)n(CCNC(N)=O)c(=O)n1CC2 [Sulfate, RPL554 sulfate]
Calculated RPL554 solubilised (%) ([1]; in HFA 134): BLQ
Calculated Solubilised RPL554 μg per 50 μL actuation ([1]; in HFA 134): BLQ
Solubility RPL554 (μg/g) ([1]; in HFA 134, BLQ = below limit of quantitation (0.06 μg/mL)): BLQ
Estimated RPL554 solubilised (%) ([1]; in HFA 134 with Ethanol/Tween): 2.84%
Estimated Solubilised RPL554 μg per 50 μL actuation ([1]; in HFA 134 with Ethanol/Tween): 4.71 µg
Solubility RPL554 ([1]; in HFA 134 with Ethanol/Tween): 73.19 µg/g
Calculated RPL554 solubilised (%) ([1]; in HFA 227): BLQ
Calculated Solubilised RPL554 μg per 50 μL actuation ([1]; in HFA 227): BLQ
Solubility RPL554 (μg/g) ([1]; in HFA 227): BLQ
D (0.1) (μm) [2]: 0.51 μm
D (0.5) (μm) [2]: 1.12 μm
D (0.9) (μm) [2]: 2.30 μm
pH of aqueous suspension/solution ([3]; listed as Sulfuric - aqueous solution): 1.87
†Measured Mass of 1% w/w Blend Delivered per capsule [4]: 19.78 mg
††RPL554 Emitted (μg) per capsule (B) [4]: 79.35 µg
Calculated RPL554 Content (μg) per capsule (A) [4]: 120.61 µg
Solubility as RPL554 (mg/ml) in 0.7 w/w % Saline [5]: 2.78 mg/mL
Solubility as RPL554 (mg/ml) in 0.9 w/w % Saline [5]: 1.94 mg/mL
Solubility as RPL554 (mg/ml) in 1.1 w/w % Saline [5]: 1.35 mg/mL
Solubility as RPL554 (mg/ml) in Water [5]: 12.11 mg/mL
Measured Blend Content (% Theoretical) [6]: 73.50 % Theoretical
**Adjusted RPL554 Content per capsule [6]: 121.95 µg

COc1cc2c(cc1OC)-c1c/c(=N\c3c(C)cc(C)cc3C)n(CCNC(N)=O)c(=O)n1CC2 [Ethane-1,2-disulfonate, RPL554 ethane-1,2-disulfonate]
Estimated Solubilised RPL554 μg per 50 μL actuation [1, 8]: 0.11 µg
Solubility RPL554 [1, 8]: 1.69 µg/g
Estimated RPL554 solubilised (%) ([1]; HFA 227: 10% Ethanol: 0.1% Tween, listed as Ethane-1,2-disulfonate hemi-salt): 0.07%
Solubility RPL554 (μg/g) ([1]; in HFA 134, BLQ = below limit of quantitation (0.06 μg/mL), listed as Ethane-1,2-disulfonate hemi-salt): BLQ
Calculated RPL554 solubilised (%) [1, 9]: BLQ
Calculated Solubilised RPL554 μg per 50 μL actuation [1, 9]: BLQ
Solubility RPL554 ([1]; in HFA 134 with Ethanol/Tween): 5 µg/g
Estimated RPL554 solubilised (%) [1, 10]: 0.20%
Estimated Solubilised RPL554 μg per 50 μL actuation [1, 10]: 0.34 µg
Solubility RPL554 [1, 10]: 5.13 µg/g
Calculated RPL554 solubilised (%) ([1]; in HFA 227): BLQ
Calculated Solubilised RPL554 μg per 50 μL actuation ([1]; in HFA 227): BLQ
Solubility RPL554 (μg/g) ([1]; in HFA 227): BLQ
D (0.1) (μm) [2]: 0.52 μm
D (0.5) (μm) [2]: 1.25 μm
D (0.9) (μm) [2]: 2.78 μm
pH of aqueous suspension/solution ([3]; listed as Ethane-1,2-disulfonic): 3.72
†Measured Mass of 1% w/w Blend Delivered per capsule [4]: 19.90 mg
††RPL554 Emitted (μg) per capsule (B) [4]: 87.91 µg
Calculated RPL554 Content (μg) per capsule (A) [4]: 133.06 µg
Solubility as RPL554 (mg/ml) in 0.7 w/w % Saline [5]: 4.79 mg/mL
Measured Blend Content (% Theoretical) [6]: 80.18 % Theoretical
**Adjusted RPL554 Content per capsule [6]: 133.73 µg
